Literature values as cited in patent publication US20200268651A1, “STABLE VITAMIN B12 LIQUID FORMULATIONS” (priority 2019, published 2020).

Key:
[1] = ascorbic acid (AH2), studied at pH 1.0-8.0
[2] = long-term use

| Molecule | pH of maximum rate of degradation in the presence of ascorbic acid [1] [pH] | people with reduced serum levels of vitamin B12 [2] |
| --- | --- | --- |
| C/C1=C2/[N-][C@H]([C@H](CC(N)=O)[C@@]2(C)CCC(=O)NC[C@@H](C)OP(=O)([O-])O[C@H]2[C@@H](O)[C@@H](n3cnc4cc(C)c(C)cc43)O[C@@H]2CO)[C@]2(C)N=C(/C(C)=C3N=C(/C=C4N=C1[C@@H](CCC(N)=O)C\4(C)C)[C@@H](CCC(N)=O)[C@]\3(C)CC(N)=O)[C@@H](CCC(N)=O)[C@]2(C)CC(N)=O.[Co+3].[OH-] [hydroxocobalamin] | 5.0 | – |
| cyanocobalamin | 5.0 | – |
| CN(C)C(=N)N=C(N)N [metformin] | – | up to 30% |
